Source: patent US20080267880A1, “AUTOMATED METHOD FOR HIGH THROUGHTOUT SCREENING OF NEMATODES” (priority 2002, published 2008)
Several values for one entry are separate records, joined by “and”; a condition that tells them apart may be missing. Equal entries are not always repeated.

Legend:
[1] = tested on: wild-type worms (C. elegans N2); type: in vivo, Caenorhabditis elegans
Procedure: Eggs were transferred to 24-well plates (Corning Inc., NY) containing 1 ml S-medium, without cholesterol, plus 1×10^8 cells/ml E. coli OP50, and grown at 25° C. All assays were performed on 3 day old egg-laying hermaphrodites. For worms treated with the superoxide/dismutase mimetic Euk-134 (Eukarion, Mass.) a single dose was added from a 5 mM stock (in Milli-Q water) on day one. At adulthood, 100 μL of culture media was removed from each well and replaced with 100 μL of paraquat stock solution (final concentration 40 mM). The cultures were then placed back at 25° C. and scored 48 h later for touch-provoked movement using a platinum wire. Immediately following the manual score, SYTOX green dye was added to each well to a final concentration of 1 μM.
We then examined the utility of SYTOX green dye as a score of death due to oxidative stress by incubating 3 day old gravid adult worms in the presence or absence of 40 mM paraquat for 48 hr. Death was first scored by the absence of touch provoked movement and 15 min later by the presence of SYTOX-associated fluorescence (FIG. 6A). […] Following the addition of […] SYTOX green dye and incubation for 15 min at room temperature, death was scored as the presence of fluorescence (FIG. 6A). The mean fraction alive (±SEM) as scored by SYTOX-associated fluorescence was 0.95±0.02 (n=69) in controls and 0.07±0.04 (n=157) in paraquat treated worms.
The utility of SYTOX dye was further tested in an experiment in which worms were cultured in the presence or absence of Euk-134 prior to paraquat exposure (FIG. 6B). […] The mean fraction alive (±SEM) scored by touch-provoked movement was 0.06±0.03 (n=47, 40 mM paraquat) and 0.78±0.11 (n 51, 40 mM paraquat+0.5 mM Euk134). The mean fraction alive (±SEM) scored using SYTOX dye was 0.13±0.00 (n=45, 40 mM paraquat) and 0.92±0.01 (n=51, 40 mM paraquat+0.5 mM Euk134). In each of these experiments the percentage of animals scored as alive using the SYTOX score was always slightly higher than the manual score.

wild type C. elegans N2 [2] = assay: Microplate thermotolerance assay (35° C. heat shock, SYTOX fluorescence score of death); type: in vivo, Caenorhabditis elegans; set-up: thermotolerance compared to untreated wild type worms: dose or concentration left out as unconfirmed; conditions: heat shock 35° C.
Procedure: Worms (˜10,000 to 20,000) were washed off NGM plates with 10 ml S-basal into a 15 ml tube. After gravity settling for 5 minutes, 9 ml S-basal was aspirated and replaced with fresh 9 ml S-basal. Following a further 2 washes the nematodes were introduced to the sample cup on the COPAS™ BIOSORT at a concentration of 1 worm per μl. Worms were dispensed, 1 animal per well, into either 96 well or 384 well microtitre plates according to the manufacturers instructions. For thermotolerance assays 384 well low volume plates (Greiner Bio-One Inc, Longwood, Fla.) were prepared with 20 μl S-medium containing SYTOX® at a final concentration of 1 μM. […]
The thermotolerance assay was performed in a Fluoroskan Ascent fluorometer (Thermo Labsystems, Finland). The ambient temperature of the fluorometer was set to 35° C. and Ascent software was configured to measure the fluorescence from each well every 30 minutes over a 20-24 hour period with a 20 millisecond measurement time for each well. At this setting a complete 384 well plate could be read within 30 seconds. The excitation wavelength for fluorescence was 485 nm and the emission wavelength 538 nm.
Analysis of individual fluorescence curves was performed using the Fluoroskan Ascent software. A 100% increase in fluorescence over baseline was used a cut-off to define a death event. […]

wild type C. elegans N2 [3] = conditions: Babar et al. (1999); cited from earlier work
[4] = 40 mM paraquat+0.5 mM Euk134, 48 h

## COc1cccc(C=NCCN=Cc2cccc(OC)c2[O-])c1[O-].[Cl-].[Mn+3] [Euk-134]
[1]; [4]
  mean fraction alive (±SEM), scored by touch-provoked movement: 0.78±0.11
  mean fraction alive (±SEM), scored using SYTOX dye: 0.92±0.01

## C[n+]1ccc(-c2cc[n+](C)cc2)cc1 [paraquat]
[1]; 40 mM paraquat alone, 48 h, 3 day old gravid adults, 15 min SYTOX
  mean fraction alive (±SEM), SYTOX-associated fluorescence score: 0.07±0.04 and 0.13±0.00

## O=c1cc(N2CCOCC2)oc2c(-c3ccccc3)cccc12 [LY294002, 2-(4-Morpholinyl)-8-phenyl-4H-1-benzopyran-4-one]
Wild type C. elegans N2 [2]; 100 nM LY294002
  effect of the drug on thermotolerance: no significant effect
Wild type C. elegans N2 [2]; grown from eggs to 4 day adults in S-medium at 20° C.
  thermotolerance compared to untreated wild type worms: significantly more thermotolerant
Wild type C. elegans N2 [3]
  thermotolerance of treated wild type worms (previously shown): confers thermotolerance similar to that seen in age-1(hx546)
